Measured values published in patent US20230096602A1, “TETRAHYDROCYCLOPENTA[B]INDOLE COMPOUNDS FOR TREATMENT OF RENAL DISEASE” (Eirgen Pharma Ltd., priority 2020, published 2023).

Legend:
[1] = tested on: orchidectomized (ORX) rats; test: Testosterone induced prostate and seminal vesicle growth in delayed ORX rat model; type: in vivo; conditions: for seminal vesicle wet weights Abs(Dif)-LSD / prostate weights Abs(Dif)-LSD: Dunnett
Description: (§1) Orchidectomized (ORX) and sham-operated Wistar male rats were used (orchidectomized at 8 weeks of age and allowed to waste for 4 weeks). […] Rats were randomized and placed into treatment groups (n=6) based on body weight. Route of administration for all groups except testosterone enanthate (TE was given sub-cutaneously) was oral. At the end of 2 weeks of daily rats were euthanized, weighed & tissue harvested. Levator ani, prostates, and seminal vesicles were collected from each animal. Results are plotted as means±SE.

dog prostate = test: Dog toxicology: prostate weight and atrophy; type: in vivo
LnCAP cells = test: LnCAP gene expression; type: cell-based, human; conditions: CLUSTERIN
[2] = tested on: male subjects with LUTS secondary to BPH; test: Study SAR-202 phase 2, 16 weeks; type: in vivo, human
[3] = Human PK, single and repeated doses; type: in vivo
Description: The human pharmacokinetics (PK) of OPK-88004 was investigated following single and repeated doses. Following tmax, OPK-88004 concentrations appear to decline in a biexponential fashion characterized by a short distribution phase and a long terminal phase. Exposure appears to increase approximately dose proportionally in the clinical dosing range. Steady state was achieved within 28 days of dosing. […] These therapeutic benefits of more controlled exposure may result in improved LBM and physical/muscle strength preservation, physical function improvement and muscle wasting prevention. OPK-88004 bioexponential PK profile is important for the optimization of side effect benefit/risk ratio in special populations including dialysis patients.

[4] = tested on: orchidectomized (ORX) rats; test: Bone effects in osteopenic ORX rat model; conditions: in vivo
[5] = Margin of safety (AUC), dog; type: in vivo
[6] = tested on: patients with ED who had an incomplete response to tadalafil; test: Study GPEC phase 2, 12 weeks; type: in vivo, human; conditions: for Change in Fat Mass (%) (week 12) / Change in Lean Body Mass (%) (week 12): 5 mg
Description: The Phase 2 Study for ED also included exploratory measures for lower extremity muscle strength and power, LBM and fat mass.

healthy subjects [7] = test: Study GPBA QTcF concentration-response analysis; type: in vivo, human; conditions: concentrations found with doses of 250 mg or greater
Protocol: At TT701 concentrations found with doses of 250 mg or greater, the mean QTcF prolongation was greater than 10 msec. The risk for clinically significant QT prolongation at doses <250 mg can be excluded.

rat uterus = test: Rat uterine risk; type: in vivo
[8] = Margin of safety (AUC), cat as printed; type: in vivo; conditions: cat (so in the source)
clinical study subjects = test: Clinical safety assessment across studies; type: in vivo, human; conditions: phase 2 study
[9] = tested on: orchidectomized (ORX) rats; test: Prostate and seminal vesicle weight in ORX rat model
Description: as §1

[10] = tested on: patients with androgen deficiency; test: Clinical studies in patients with androgen deficiency; type: in vivo, human; conditions: any dose level (up to 75 mg doses)
Description: The exact effect of this decrease in testosterone levels on androgen related anabolic and prostate effects is not known, but may be dependent on the base levels of testosterone.

healthy subjects [11] = conditions: healthy volunteers, any time point or dose; data of WO 2016040234; cited from earlier work
ER, GR, PR MR = test: Binding to other nuclear hormone receptors; conditions: selectivity
[12] = tested on: orchidectomized (ORX) rats; test: Levator ani muscle in delayed ORX rat model; type: in vivo; conditions: for levator ani W/BW Mean: delayed ORX rat
Description: Results are plotted as means±SE.
Following the androgen deficiency in the ORX model, the Levator ani- and bulbocavernous muscle weights decreased in size.

healthy subjects [13] = test: Study GPBC multiple-dose 28 days; type: in vivo, human; conditions: 1 mg to 75 mg daily dose for 28 days
[14] = baseline testosterone <340 ng/dL
[15] = baseline testosterone ≥340 ng/dL
[16] = ORX + TE, 1 mg/kg/d + Example 1, 3 mg/kg/d vs ORX + TE
[17] = ORX + TE, 1 mg/kg/d + Example 1, 10 mg/kg/d vs ORX + TE
[18] = ORX + TE, 1 mg/kg/d + Example 1, 30 mg/kg/d vs ORX + TE

CCCCCCC(=O)O[C@H]1CC[C@H]2[C@@H]3CCC4=CC(=O)CC[C@]4(C)[C@H]3CC[C@]12C [Testosterone Enanthate, reference compound]
prostate weight and seminal vesical weight ([1]; orchidectomized rats, 1 mg/k/d alone, 2 weeks): increase

CC(C)OC(=O)N[C@H]1Cc2c(n(Cc3ccccn3)c3ccc(C#N)cc23)C1 [compound of Formula II, (S)-(7-cyano-4-pyridin-2-ylmethyl-1,2,3,4-tetrahydro-cyclopenta[b]indol-2-yl)-carbamic acid isopropyl ester]
decreases of prostate weight (dog prostate; dogs, by 3 months (so in the source)): 60-75% | progressive decrease in prostate size (dog prostate; normal dogs, six-month treatment period): 60% | EC50 (LnCAP cells): > 100 nM | Change in Fat mass (kg) (week 16) ([2]; 15 mg, 16 weeks): -1.47 kg | Change in Fat mass (kg) (week 16) ([2]; 25 mg, 16 weeks): -1.49 kg | Change in Lean Body Mass (kg) (week 16) ([2]; 25 mg, 16 weeks, listed as OPK-88008): 1.96 kg | Change in Prostate Specific Antigen (week 16 to baseline) ([2]; 25 mg, listed as OPK-88008): −15.44 (p = 0.006) | Accumulation with multiple dosing ([3]; in vivo): up to 2.5 fold | time to steady state ([3]; repeated dosing): ≤ 28 days | Bone Eff (BM) [4]: 2 mpk | MOS (AUC) [5]: 28 X | Change in Fat Mass (%) (week 12) [6, 14]: −1.85% | Change in Lean Body Mass (%) (week 12) [6, 14]: 1.60% | Change in Fat Mass (%) (week 12) [6, 15]: −0.95% | Change in Lean Body Mass (%) (week 12) [6, 15]: 0.88% | Hematocrit ([6]; 12 weeks (FIG. 11)): no change | mean QTcF prolongation (healthy subjects [7]): greater than 10 msec | Rat uterine risk (rat uterus): 20 mpk | seminal vesicle wet weights Abs(Dif)-LSD ([1]; ORX + Example 1, 10 mg/kg/d (no TE) vs ORX + TE): 1.411 | prostate weights Abs(Dif)-LSD [1, 16]: −0.11 | seminal vesicle wet weights Abs(Dif)-LSD [1, 16]: −0.34 | prostate weights Abs(Dif)-LSD [1, 17]: 0.036 | seminal vesicle wet weights Abs(Dif)-LSD [1, 17]: 0.078 | prostate weights Abs(Dif)-LSD [1, 18]: 0.025 | seminal vesicle wet weights Abs(Dif)-LSD [1, 18]: 0.536 | prostate weight and seminal vesical weights normalized to body weight ([1]; TE 1 mg/kg/d + 3, 10 and 30 mg/kg/d, 2 weeks, compared to TE alone): decreasing | MOS (AUC) [8]: 71 X | transient abnormal AST or ALT level (clinical study subjects; one subject): > 3 ×ULN | transient abnormal AST or ALT level (clinical study subjects; two subjects): > 2 ×ULN | prostate or seminal vesical weights ([9]; delayed ORX rats, 2 or 8 weeks, increasing doses up to 20-30 mg/kg): no effect | changes in the prostate ([9]; orchidectomized rats, 30 mg/kg, highest dose examined): did not induce changes | Rat SV/Prost risk mgs/kg ([9]; rat): >30 mpk | PSA [10]: No increases | prostate specific antigen (PSA) levels, changes from baseline vs placebo (healthy subjects [11]): no significant changes | binding affinity for hAR compared to other nuclear hormone receptors (ER, GR, PR MR): > 500 fold | levator ani W/BW Mean ([12]; 8 weeks, dose 1): 0.2749 mg/g | levator ani W/BW Mean ([12]; 8 weeks, dose 3): 0.2575 mg/g | levator ani W/BW Mean ([12]; 8 weeks, dose 10): 0.3237 mg/g | levator ani W/BW Mean ([12]; 8 weeks, dose 20): 0.325 mg/g | Muscle LA ED mg/kg ([12]; rat): 3 mpk | PSA test, effect on the prostate (healthy subjects [13]): neutral to negative effect

B1: PTH: PTH 10 comparator group in the delayed ORX rat model, Table 7 (peptide, UniProt P01270 32-115, looked up)
Parathyroid hormone: SVSEIQLMHNLGKHLNSMERVEWLRKKLQDVHNFVALGAPLAPRDAGSQRPRKKEDNVLVESHEKSLGEADKADVNVLTKAKSQ
modifications: Parathyroid hormone
levator ani W/BW Mean ([12]; PTH 10 (head: ug/kg/d)): 0.1665 mg/g
